Where a SMILES comes first, the peptide text is derived from it.
Columns and labels:
[1] = system: baculovirus expressing luciferase under the control of the CMV promoter; type: cell-based; details: luciferase reporter gene expression in HEK293 cells transduced with baculovirus-luc, MOI 5, 24 h post-infection; 1:3 peptide dilution series; non-linear regression; n = 8
Protocol: (§1) A baculovirus expressing luciferase under the control of the CMV promoter has been described previously. HEK293 cells were seeded at a density of 2 × 10^4 cells/100 µL per well in 96-well plates (Sarstedt, Germany). On the next day, cells were treated with a 1:3 dilution series of peptides and, without further pre-incubation, subsequently infected with baculovirus–luc at a multiplicity of infection (MOI) of 5. Cells were lysed 24 h post-infection using 20 µL Cell Culture Lysis Reagent (Promega, Mannheim, Germany). From the lysates, 10 µL was transferred to white 96-well plates, and luciferase was recorded using a luciferase assay system and a GloMax®-Multi Detection System (Promega, Mannheim, Germany).

cells = details: not associated with cell toxicity; cited from earlier work
[2] = system: MCMV strain delm157-luc rep; type: cell-based, mouse cytomegalovirus; details: luciferase reporter gene expression in NIH/3T3 cells infected with replication-competent MCMV, MOI 0.5, 72 h post-infection; 1:3 dilution series; non-linear regression; n = 9
Protocol: NIH/3T3 cells were seeded at a density of 2 × 10^4 cells/100 µL per well in a 96-well plate (Sarstedt, Germany) and allowed to attach overnight. On the next day, cells were treated with a 1:3 dilutions series of peptides and, without further pre-incubation, subsequently infected with the MCMV strain delm157-luc rep. The MCMV stock was prepared and quantified as previously described. The virus (MOI 0.5 for luc assays; for other assays, see the specific descriptions) was adsorbed to cells with the aid of centrifugal enhancement twice at 800× g for 15 min at room temperature and incubated at 37 °C for the indicated times. For the luciferase assays, the infected cells were lysed 72 h post-infection using 20 µL Cell Culture Lysis Reagent (Promega, Mannheim, Germany). From the lysates, 10 µL was transferred to white 96-well plates, and luciferase was recorded using a Luciferase Assay System and a GloMax®-Multi Detection System (Promega, Mannheim, Germany).

[3] = system: MCMV pM123/IE1 protein expression; assay: pM123/IE1 immunofluorescence in MCMV-infected NIH/3T3 cells; type: cell-based, mouse cytomegalovirus; details: MCMV MOI 1, 6 h post-infection
Protocol: NIH/3T3 cells were seeded at a density of 2 × 10^4 cells/250 µL per well in ibiTreat 8-well chambers (ibidi, Gräfelfing, Germany) and allowed to attach overnight at 37 °C. On the next day, cells were treated with peptides and infected with MCMV at an MOI of 1 with the aid of centrifugal enhancement, twice at 800× g for 15 min. After 6 h of incubation at 37 °C, the supernatants were removed and cells were fixed with 5% formaldehyde for 1 h at room temperature, followed by permeabilization with 0.5% Triton X-100 (Sigma Aldrich, Schnelldorf, Germany) in PBS for 10 min at room temperature. Cells were then incubated with 3% bovine serum albumin (BSA; Sigma Aldrich, Schnelldorf, Germany) in PBS for one hour. After that, anti-m123/IE-1 antibody (clone IE1.01; Center for Proteomics, Rijeka, Croatia) was added at a 1:400 dilution in PBS + 1% BSA and slides were incubated overnight at 4 °C. On the next day, wells were washed twice with PBS. […]

[4] = Peptide stability in PBS or PBS with 10% FCS, read out as antiviral activity; type: in vitro ADME; details: 48 h at 37 °C versus −20 °C, two independent incubations in duplicate
Protocol: as §1
NIH/3T3 cells were seeded at a density of 2 × 10^4 cells/100 µL per well in a 96-well plate (Sarstedt, Germany) and allowed to attach overnight. On the next day, cells were treated with a 1:3 dilutions series of peptides and, without further pre-incubation, subsequently infected with the MCMV strain delm157-luc rep. The MCMV stock was prepared and quantified as previously described. […] From the lysates, 10 µL was transferred to white 96-well plates, and luciferase was recorded using a Luciferase Assay System and a GloMax®-Multi Detection System (Promega, Mannheim, Germany). […]

DiO-labeled MCMV = assay: Entry of DiO-labeled MCMV (microscopy); type: cell-based, mouse cytomegalovirus; details: 10 µM peptide, NIH/3T3 cells, 120 min post-infection, MOI approximately 5
Protocol: DiO labeling was performed by incubation of MCMV (2 × 10^7 pfu) with 5 µL of Vybrant™ DiO Cell-Labeling Solution in 300 µL cell culture medium supplemented with 10% FCS for 20 min at 37 °C. After that, the virus was precipitated overnight at 4 °C by addition of 600 µL autoclaved solution of polyethylene glycol/sodium chloride (30% (w/v) PEG-8000 (Sigma Aldrich, Schnelldorf, Germany), 10.5% NaCl (w/v) in PBS, followed by centrifugation on the next day for one hour at 1600× g at 4 °C. Supernatants were discarded, and the precipitated virus was resuspended in 500 µL cell culture medium supplemented with 10% FCS, aliquoted and stored at −80 °C.
NIH/3T3 cells were seeded at a density of 2 × 10^4 cells/250 µL per well in ibiTreat 8-well chambers (ibidi, Germany) and allowed to attach overnight at 37 °C. On the next day, cells were treated with peptides and infected with DiO-labeled MCMV corresponding to an MOI of approximately 5 with the aid of centrifugal enhancement, twice at 800× g for 15 min. After 2 h of incubation, cells were washed twice with PBS and fixed with 5% formaldehyde for 1 h at room temperature. Then, cells were stained with DAPI for 15 min, as described above. […]

Structure (SMILES): CC(C)C[C@H](NC(=O)[C@H](CS)NC(=O)[C@H](CCC(N)=O)NC(=O)[C@@H]1CCCN1C(=O)[C@@H]1CCCN1C(=O)[C@H](CCCNC(=N)N)NC(=O)[C@H](CCCNC(=N)N)NC(=O)[C@H](CCCNC(=N)N)NC(=O)[C@H](CCC(N)=O)NC(=O)[C@H](CCCNC(=N)N)NC(=O)[C@H](CCCNC(=N)N)NC(=O)[C@H](CCCCN)NC(=O)[C@H](CCCCN)NC(=O)[C@H](CCCNC(=N)N)NC(=O)CN)C(=O)N[C@@H](C)C(=O)N[C@@H](Cc1ccccc1)C(=O)N[C@@H](Cc1ccc(O)cc1)C(=O)N[C@@H](C)C(=O)N[C@@H](CS)C(=O)N[C@@H](Cc1ccccc1)C(=O)N[C@@H](CS)C(=O)O [TAT-I24] (H-GRKKRRQRRRPPQCLAFYACFC-OH)
- IC50 [1]: 0.05 µM
- concentration with morphological changes such as cell aggregation (cells): > 10 µM
- IC50 [2]: 0.91 µM
- number of pM123/IE1-positive cells ([3]; 1 µM peptide): clearly reduced
- number of pM123/IE1-positive cells ([3]; 10 µM peptide): clearly reduced
- antiviral activity after incubation of peptide with serum (serum stability) ([4]; 20 µg peptide in 50 µL PBS with 10% FCS, read-out baculovirus/HEK293 (24 h) and MCMV/NIH/3T3 (72 h) luciferase): slight reduction in antiviral activity
- antiviral activity after incubation of peptide without serum ([4]; 20 µg peptide in 50 µL PBS, read-out baculovirus/HEK293 and MCMV/NIH/3T3 luciferase): curve shaping for both peptides was altered
- organization of fluorescent signal of DiO-labeled MCMV in cells (DiO-labeled MCMV): less perinuclear organization and was more dispersed in the whole cytoplasm

Reference: publication PMC11477294, “In Vitro Profiling of the Antiviral Peptide TAT-I24” (International Journal of Molecular Sciences, 2024)
